Experimental data reported in paper PMC8405607 (British Journal of Cancer, 2021).

System: advanced solid tumours
Test: phase I antitumor activity (RECIST v1.1) and treatment duration; Reg 1: 3qw continuous; Reg 3: 3qw 2 weeks on/1 week off
Assay type: in vivo, human
Design: DCR / ORR: unit not given here
Protocol: All patients provided written informed consent. […] Antitumor efficacy was assessed using computerised tomography (CT)/magnetic resonance imaging assessment at baseline and every 8 weeks until disease progression or the initiation of subsequent antineoplastic therapy or death, whichever occurred first. In addition, the criteria for determining confirmed partial response (PR) or complete response (CR) were required to be present for at least 4 weeks. Demographic and other baseline data and PK/PD parameters were summarised using descriptive statistics.[11] PK parameters were estimated using noncompartmental methods (Phoenix®, Pharsight, Mountain View, California, USA).

## COc1cc2c(cc1OC(C)C)[C@H](c1ccc(Cl)cc1)N(c1ccc(N(C)C[C@H]3CC[C@H](N4CCN(C)C(=O)C4)CC3)cc1)C(=O)C2 [CGM097]
10 mg Reg 1, N = 3
  BOR: CR: 0
  BOR: PD: 2 (66.7)
  BOR: PR: 0
  BOR: SD: 1 (33.3)
  BOR: Unknown: 0
  DCR: 1 (33.3)
  ORR: 0
20 mg Reg 1, N = 4
  BOR: CR: 0
  BOR: PD: 2 (50.0)
  BOR: PR: 0
  BOR: SD: 1 (25.0)
  BOR: Unknown: 1 (25.0)
  DCR: 1 (25.0)
  ORR: 0
40 mg Reg 1, N = 4
  BOR: CR: 0
  BOR: PD: 2 (50.0)
  BOR: PR: 0
  BOR: SD: 1 (25.0)
  BOR: Unknown: 1 (25.0)
  DCR: 1 (25.0)
  ORR: 0
80 mg Reg 1, N = 4
  BOR: CR: 0
  BOR: PD: 3 (75.0)
  BOR: PR: 0
  BOR: SD: 1 (25.0)
  BOR: Unknown: 0
  DCR: 1 (25.0)
  ORR: 0
150 mg Reg 1, N = 4
  BOR: CR: 0
  BOR: PD: 3 (75.0)
  BOR: PR: 0
  BOR: SD: 0
  BOR: Unknown: 1 (25.0)
  DCR: 0
  ORR: 0
300 mg Reg 1, N = 7
  BOR: CR: 0
  BOR: PD: 3 (42.9)
  BOR: PR: 1 (14.3)
  BOR: SD: 2 (28.6)
  BOR: Unknown: 1 (14.3)
  DCR: 3 (42.9)
  ORR: 1 (14.3)
300 mg Reg 3, N = 8
  BOR: CR: 0
  BOR: PD: 3 (37.5)
  BOR: PR: 0
  BOR: SD: 5 (62.5)
  BOR: Unknown: 0
  DCR: 5 (62.5)
  ORR: 0
400 mg Reg 1, N = 5
  BOR: CR: 0
  BOR: PD: 1 (20.0)
  BOR: PR: 0
  BOR: SD: 4 (80.0)
  BOR: Unknown: 0
  DCR: 4 (80.0)
  ORR: 0
500 mg Reg 3, N = 6
  BOR: CR: 0
  BOR: PD: 3 (50.0)
  BOR: PR: 0
  BOR: SD: 3 (50.0)
  BOR: Unknown: 0
  DCR: 3 (50.0)
  ORR: 0
700 mg Reg 3, N = 6
  BOR: CR: 0
  BOR: PD: 3 (50.0)
  BOR: PR: 0
  BOR: SD: 1 (16.7)
  BOR: Unknown: 2 (33.3)
  DCR: 1 (16.7)
  ORR: 0
20/51 patients
  disease control rate: 39%
All patients, N = 51
  BOR: PD: 25 (49.0)
  BOR: Unknown: 6 (11.8)
  ORR: 1 (2.0)
Alternative dosing regimen
  patients with SD as best response: nine
Continuous dosing regimen
  patients with SD as best response: ten
Of 51 patients
  patients with clinical benefit: 20 patients
One malignant melanoma patient, 300 mg 3qw continuous
  duration of PR, response ongoing at cutoff: ≥ 118 weeks
